The values below are quoted from earlier work in patent US9125900B2 (priority 2005, dated 2015).

Like-named read-outs stand apart in the source and are kept apart here.

The subject of data set [1] is hypoxic goats.
Data set [2] has as its system respiratory neurons. Particulars: for morphine-induced suppression of respiratory neuronal activity: anesthetized rats.
The test system of data set [3] is respiratory neurons.
In data set [4] the target is 5-HT4a receptor isoform (Homo sapiens, UniProt Q13639).
Sequence of 5-HT4a receptor isoform (Q13639 1-387 isoform Q13639-2): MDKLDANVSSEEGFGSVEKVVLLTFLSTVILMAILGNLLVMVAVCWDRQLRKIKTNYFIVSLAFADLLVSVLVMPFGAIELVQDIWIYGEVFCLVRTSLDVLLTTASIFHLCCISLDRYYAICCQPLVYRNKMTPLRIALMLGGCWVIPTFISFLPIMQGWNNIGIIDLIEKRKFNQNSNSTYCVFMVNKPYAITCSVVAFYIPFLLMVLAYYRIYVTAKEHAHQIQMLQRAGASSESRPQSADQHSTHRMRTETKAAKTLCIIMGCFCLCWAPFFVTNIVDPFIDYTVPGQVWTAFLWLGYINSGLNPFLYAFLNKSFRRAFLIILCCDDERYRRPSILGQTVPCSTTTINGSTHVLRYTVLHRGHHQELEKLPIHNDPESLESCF
In data set [5] the target is 5-HT7 receptor (Homo sapiens, UniProt P34969).
Sequence of 5-HT7 receptor (P34969 whole entry): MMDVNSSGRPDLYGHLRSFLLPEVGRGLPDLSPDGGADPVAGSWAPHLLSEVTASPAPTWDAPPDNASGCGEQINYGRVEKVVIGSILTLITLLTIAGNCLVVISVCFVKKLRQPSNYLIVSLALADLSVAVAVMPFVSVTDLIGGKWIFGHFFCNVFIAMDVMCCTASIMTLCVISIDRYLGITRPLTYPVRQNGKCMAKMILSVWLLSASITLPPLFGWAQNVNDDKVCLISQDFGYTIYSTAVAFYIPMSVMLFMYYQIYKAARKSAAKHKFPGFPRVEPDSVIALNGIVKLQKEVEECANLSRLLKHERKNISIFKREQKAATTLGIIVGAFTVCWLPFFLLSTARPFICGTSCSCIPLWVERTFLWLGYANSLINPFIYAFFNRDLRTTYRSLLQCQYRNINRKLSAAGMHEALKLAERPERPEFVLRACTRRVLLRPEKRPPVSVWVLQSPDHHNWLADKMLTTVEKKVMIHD

Consider `CCCN(CCC)C1CCc2cccc(O)c2C1` (racemic) [8-OH-DPAT, 8-hydroxy-2-(di-n-propylamino)tetralin], for which the “respiratory frequency or ventilation rate” value in data set [1] is “did not increase respiratory frequency or ventilation rate”. Moreover, the “depressant effects on respiratory neurons” value in data set [2] (100 μg/kg, rats) was “no depressant effects on rat respiratory neurons”. Besides, the “morphine-induced suppression of respiratory neuronal activity” value in data set [2] was “reversed the morphine-induced suppression of neuronal activity”. Besides, the phrenic nerve discharges entry was “suppressed phrenic nerve discharges” in data set [3] (anesthetized cats, higher doses 50 and 90 μg/kg); “increased the frequency of phrenic nerve discharges” in data set [3] (anesthetized cats, lower doses 10-50 μg/kg); “phrenic nerve discharges were decreased” in data set [3] (cats, 20 μg/kg intravenously). Further, the “pentobarbital- and ketamine-induced suppression of respiratory neurons” value in data set [3] (cats) is “reverse pentobarbital- and ketamine-induced suppression of respiratory neurons”.

As to `COc1cc(N)c(Cl)cc1C(=O)NC1CN2CCC1CC2.Cl` (racemic) [zacopride, 4-amino-N-1-azabicyclo[2.2.2] oct-3-yl-5-chloro-2-methoxybenzamide hydrochloride], the receptor activity entry in data set [4] is reported as “agonist of the 5-HT4a receptor isoform”.

In the case of `O=C1CC2(CCCC2)CC(=O)N1CCCCN1CCN(c2ncccn2)CC1` [buspirone], the “morphine-induced suppression of respiratory neuronal activity” value in data set [2] is listed as “reversed the suppression”. The receptor activity entry in data set [5] is recorded as “no effect on the 5-HT7 receptor”.
